The text below walks through data of US11918620B2, “Traditional Chinese medicine composition, and preparation method therefor and application thereof” (Suzhou Regen-PharmaTech Co., Ltd., priority 2020, dated 2024).

This assay relates to rats with hybrid hyperlipidemia. The assay is described as follows: Blood lipids in hybrid hyperlipidemia rat model. The format is in vivo, SD rat. Conditions: 3.3 mg/kg, compared with the modeling control group, at each time point. The procedure: Grouping: After quarantine, the animals were randomized into a negative control group of 10 animals and modeling groups of the rest. After the modeling groups were given modeling feed for 2 weeks, the animals were anesthetized by isoflurane inhalation without fasting. The blood was collected from orbital venous sinus and was centrifuged at 3000 rpm for 10 min to separate the serum. The total cholesterol (TC), triglyceride (TG), low-density lipoprotein cholesterol (LDL-C) and high-density lipoprotein cholesterol (HDL-C) levels were determined. Animals with lower TG levels were eliminated. […]
2.8.1 High-fat and high-cholesterol modeling feed: A maintenance feed containing 20.0% of sucrose, 5% of lard, 1.0% of cholesterol, 0.1% of sodium cholate, appropriate amounts of casein, calcium bicarbonate, powdered stone and the like. Other than crude fat, in the modeling feed, moisture, crude protein, crude fat, crude fiber, crude ash, calcium, phosphorus and calcium:phosphorus all satisfied the national standard for maintenance feed. The feed was provided by Guangdong Medical Laboratory Animal Center. […]
2.8.6.3 Blood lipids: After 2, 4, 7 and 9 weeks of treatment (d14, d28, d52 and d65), the animals were anesthetized by isoflurane inhalation without fasting. […] The TC, TG, LDL-C and HDL-C levels were determined. […]

As for `CC(C)c1c(C(=O)Nc2ccccc2)c(-c2ccccc2)c(-c2ccc(F)cc2)n1CC[C@@H](O)C[C@@H](O)CC(=O)O` [atorvastatin calcium tablet, atorvastatin calcium], the “effect on reducing blood lipids (summary)” value is “no significant effect on reducing the blood lipids”.
